What all share (details): anti-Flag purified enzyme, less than 10% of activity recovered on purification, assay buffer: 0.1 mM pyridoxal phosphate, 1 mM dithiothreitol, 37°C
For one series, the target named is T1, xlODC1 (Xenopus laevis, UniProt P27120).
T1 construct: gene odc1-a
T1 sequence (P27120 1-460): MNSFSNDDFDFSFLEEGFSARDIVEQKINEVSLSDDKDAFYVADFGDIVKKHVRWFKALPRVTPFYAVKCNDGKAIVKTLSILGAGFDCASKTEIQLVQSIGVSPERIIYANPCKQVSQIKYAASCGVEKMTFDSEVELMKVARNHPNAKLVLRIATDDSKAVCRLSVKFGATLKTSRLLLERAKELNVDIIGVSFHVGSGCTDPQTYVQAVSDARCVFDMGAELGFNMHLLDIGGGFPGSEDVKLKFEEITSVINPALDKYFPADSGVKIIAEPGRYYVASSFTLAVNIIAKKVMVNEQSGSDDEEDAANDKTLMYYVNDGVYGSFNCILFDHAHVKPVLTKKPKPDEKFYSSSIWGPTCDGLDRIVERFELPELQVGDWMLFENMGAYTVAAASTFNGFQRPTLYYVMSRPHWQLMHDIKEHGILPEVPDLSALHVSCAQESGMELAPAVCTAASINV
The experiment in a line: decarboxylase activity, Michaelis-Menten fit. The series is classed as biochemical.

Substrate in the series “purified protein”: NCCC[C@H](N)C(=O)O
Description: purified protein.

Substrate in series [1]: NCCCC[C@H](N)C(=O)O
The experiment in a line: decarboxylase activity, Michaelis-Menten fit. The series is classed as biochemical, Xenopus laevis.

Like-named read-outs stand apart in the source and are kept apart here.

As to `NCCCC[C@H](N)C(=O)O` [L-lysine], at xlODC1 (unit inferred, mM from, read-out: Km^Lys), the Km came to 34.9 ± 6.1 mM.
As for `NCCC[C@H](N)C(=O)O` [L-ornithine], at xlODC1 (read-out: Km^Orn), the Km amounted to 0.103 ± 0.027 mM.

B1: xlAZIN2 (xlODC2, xlLDC, xlLODC) (Xenopus laevis) (protein)
chain: MQGYIQESDFNLVEEGFLARDLMEEIINEVSQTEDRDAFFVADLGDVVRKHLRFLKALPRVKPFYAVKCNSSKGVVKILAELGAGFDCASKTEIELVQDVGVAPERIIYANPCKQISQIKYAAKNGVQMMTFDNEVELSKVSRSHPNARMVLRIATDDSKSSARLSVKFGAPLKSCRRLLEMAKNLSVDVIGVSFHVGSGCTDSKAYTQAISDARLVFEMASEFGYKMWLLDIGGGFPGTEDSKIRFEEIAGVINPALDMYFPESSDVQIIAEPGRYYVASAFSLAVNVIAKKEVEHSVSDDEENESSKSIMYYVNDGVYGSFNCLVFDHAHPKPILHKKPSPDQPLYTSSLWGPTCDGLDQIAERVQLPELHVGDWLLFENMGAYTIAASSNFNGFQQSPVHYAMPRAAWKAVQLLQRGLQQTEEKENVCTPMSCGWEISDSLCFTRTFAATSII
B1: the values for the Km (in the series “purified protein”; in series [1]) were 3080 ± 810 µM and 807 ± 102 µM, respectively.

The term Km denotes the concentration of substrate that gives half-maximal velocity.
